In PMC12073449, “Development of a Mechanism of Action-Reflective Cell-Based Reporter Gene Assay for Measuring Bioactivities of Therapeutic Glucagon-like Peptide-2 Analogues” (Molecules, 2025):
Ends that are not written are not given here.

Key:
[1] = set-up: method as in PMID 35933503; settings: general statement; cited from earlier work
Source text: The diverse functions of GLP-2 highlight its significance in maintaining intestinal health and physiology. As a naturally occurring gut hormone, GLP-2 not only promotes nutrient absorption by decreasing intestinal motility and permeability, but also plays a pivotal role in stimulating intestinal epithelial cell growth and function. This multifaceted action of GLP-2 is crucial for the maintenance of the intestinal barrier, which is essential for preventing the translocation of harmful bacteria and toxins into the bloodstream.

[2] = biological target: T1, human GLP-2R (Homo sapiens, UniProt O95838); assay: Cell-based reporter gene assay (RGA), HEK293-GLP-2R-Luc, CRE-luciferase; settings: diluted to 2.665 µmol/L and further 7-fold for 10 concentration points; HEK293-GLP-2R-Luc cells
T1 construct: The full-length cDNA of human GLP-2R was synthesized, cloned, and inserted into the pLU.cmv.Zeo vector; expressed in transfected cells
T1 sequence (O95838 1-553): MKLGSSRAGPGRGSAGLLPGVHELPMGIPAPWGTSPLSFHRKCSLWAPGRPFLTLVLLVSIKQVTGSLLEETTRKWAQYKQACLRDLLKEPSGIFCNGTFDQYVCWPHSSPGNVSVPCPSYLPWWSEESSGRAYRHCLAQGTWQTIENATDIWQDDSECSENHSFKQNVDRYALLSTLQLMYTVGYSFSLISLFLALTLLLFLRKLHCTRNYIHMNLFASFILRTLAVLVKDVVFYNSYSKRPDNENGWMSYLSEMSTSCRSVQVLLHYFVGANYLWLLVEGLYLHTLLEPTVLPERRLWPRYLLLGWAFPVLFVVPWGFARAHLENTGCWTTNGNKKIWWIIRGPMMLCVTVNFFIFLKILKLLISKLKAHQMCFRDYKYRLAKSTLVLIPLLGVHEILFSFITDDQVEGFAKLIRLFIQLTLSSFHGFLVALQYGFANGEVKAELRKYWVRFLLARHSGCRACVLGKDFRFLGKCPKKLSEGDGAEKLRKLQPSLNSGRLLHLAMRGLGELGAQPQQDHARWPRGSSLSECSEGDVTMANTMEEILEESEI
Procedure: To generate a HEK293 cell line stably expressing CRE-driven luciferase and GLP2R, the CRE-miniP.Luc virus-containing cell supernatants were diluted in DMEM in the presence of 8 µg/mL polybrene before being added to HEK293 cells. To obtain a stable cell pool, the medium was replaced 48 h after incubation, with fresh culture medium containing 3 µg/mL puromycin. After about 3 weeks selection, the cell pool was then further infected with pLU.cmv-GLP2R.Zeo virus and selected with 200 µg/mL Zeocin and 3 µg/mL puromycin. […] The expression of GLP-2R was examined using flow cytometry. After that, the positive clones were routinely maintained in selective medium.
Cell-based RGA has been described previously. Briefly, 50 microliters of HEK293-GLP-2R-Luc cells were seeded into a 96-well white plate at a density of 4 × 10^4 cells/well. The cells were then incubated at 37 °C with 5% CO2 overnight (16 to 24 h). […] After 5 h of incubation, 100 µL of britelite plus reporter Gene Assay reagent were added to each well and mixed thoroughly under subdued light conditions for 5 min. The RLU signal was then determined with a SpectraMax M5e multimode plate reader (Molecular Devices, San Jose, CA, USA).
The RGA was validated as described previously. […] Samples of each potency level were tested by two analysts 8 times in total. […] The response of HEK293-GLP2R-Luc cells to these samples were determined as illustrated in 4.6.
The lower/upper asymptote was determined by the ratio of the top asymptote to the bottom asymptote when RGA best fit the 4PL model. The correlation coefficient (R^2), deviations from parallelism, and the regression in the 4PL model were estimated using SoftMax® Pro 7.1 software (Molecular Devices, San Jose, CA, USA). Specifically, a linear regression with an R^2 value no less than 0.98 was considered to have a very good fit. Additionally, a p-value below 0.01 was regarded as statistically significant. […] All the dose-response curves were plotted using GraphPad Prism® software 8.0.2 (GraphPad, Boston, MA, USA).

HGEGTFSSELATILDALAARDFINWLIATKITDKKKKKK-NH2 [glepaglutide]
bioactivity [1]: enhanced bioactivities | half-life [1]: extended half-lives | dose-response curve in RGA [2]: induced sigmoid curves similar to those induced by teduglutide
